The values below come from patent US6794386B2, “β-amino acid compounds as integrin antagonists” (Bayer Aktiengesellschaft, priority 2000, dated 2004).

SMILES strings stand for the structures.

T1 sequence (P13612 34-1032): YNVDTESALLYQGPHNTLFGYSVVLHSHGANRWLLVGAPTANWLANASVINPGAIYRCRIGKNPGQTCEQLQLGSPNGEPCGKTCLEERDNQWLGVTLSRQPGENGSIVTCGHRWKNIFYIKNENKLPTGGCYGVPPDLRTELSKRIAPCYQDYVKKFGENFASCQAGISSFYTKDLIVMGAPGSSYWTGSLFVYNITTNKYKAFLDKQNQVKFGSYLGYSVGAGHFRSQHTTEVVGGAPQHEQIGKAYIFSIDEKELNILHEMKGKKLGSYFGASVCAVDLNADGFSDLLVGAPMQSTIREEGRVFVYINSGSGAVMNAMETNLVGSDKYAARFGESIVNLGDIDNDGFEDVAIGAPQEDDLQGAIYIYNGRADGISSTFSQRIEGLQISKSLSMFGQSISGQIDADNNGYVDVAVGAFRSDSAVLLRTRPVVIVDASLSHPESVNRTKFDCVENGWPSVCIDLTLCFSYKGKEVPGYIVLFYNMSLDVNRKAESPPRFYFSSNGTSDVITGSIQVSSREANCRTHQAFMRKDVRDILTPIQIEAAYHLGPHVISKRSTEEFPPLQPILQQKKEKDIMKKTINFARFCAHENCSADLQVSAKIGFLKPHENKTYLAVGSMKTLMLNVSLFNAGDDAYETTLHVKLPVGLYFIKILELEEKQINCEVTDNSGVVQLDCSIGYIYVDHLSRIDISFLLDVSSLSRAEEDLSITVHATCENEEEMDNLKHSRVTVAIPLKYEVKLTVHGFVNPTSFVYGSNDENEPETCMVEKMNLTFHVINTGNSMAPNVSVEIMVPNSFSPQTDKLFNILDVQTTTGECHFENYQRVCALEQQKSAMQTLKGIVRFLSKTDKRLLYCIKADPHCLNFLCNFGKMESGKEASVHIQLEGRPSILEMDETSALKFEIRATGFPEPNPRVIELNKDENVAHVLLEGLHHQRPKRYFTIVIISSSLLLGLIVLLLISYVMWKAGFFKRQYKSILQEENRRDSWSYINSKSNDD
T1 sequence (P05556 21-798): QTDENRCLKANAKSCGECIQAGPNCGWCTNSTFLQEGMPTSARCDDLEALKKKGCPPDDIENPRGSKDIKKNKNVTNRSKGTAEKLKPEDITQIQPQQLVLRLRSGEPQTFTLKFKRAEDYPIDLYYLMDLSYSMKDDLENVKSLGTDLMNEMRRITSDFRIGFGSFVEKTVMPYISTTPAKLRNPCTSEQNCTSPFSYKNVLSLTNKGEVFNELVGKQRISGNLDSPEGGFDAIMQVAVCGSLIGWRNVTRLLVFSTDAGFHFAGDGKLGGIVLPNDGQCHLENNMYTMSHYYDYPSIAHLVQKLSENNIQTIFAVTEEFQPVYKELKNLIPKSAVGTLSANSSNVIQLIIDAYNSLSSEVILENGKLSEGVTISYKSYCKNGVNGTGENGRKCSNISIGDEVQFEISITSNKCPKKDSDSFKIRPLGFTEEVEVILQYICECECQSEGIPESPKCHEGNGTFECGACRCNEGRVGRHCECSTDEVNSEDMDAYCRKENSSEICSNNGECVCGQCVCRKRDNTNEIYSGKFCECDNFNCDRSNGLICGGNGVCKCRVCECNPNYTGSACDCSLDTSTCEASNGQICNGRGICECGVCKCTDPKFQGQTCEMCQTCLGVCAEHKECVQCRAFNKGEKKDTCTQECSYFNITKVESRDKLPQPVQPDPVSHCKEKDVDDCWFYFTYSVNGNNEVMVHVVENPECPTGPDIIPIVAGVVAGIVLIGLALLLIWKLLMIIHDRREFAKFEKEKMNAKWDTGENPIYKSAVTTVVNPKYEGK

One test addresses T1, VLA-4 (Homo sapiens, UniProt P05556+P13612).
T1 construct: host or cells: Jurkat clone E6-1
As to the kind of experiment: Adhesion of Jurkat cells to immobilized VCAM-1 (domains 1-3). The test is classed as cell-based. The settings on record: adhesion of CFSE-labeled Jurkat cells to recombinant human VCAM-1 (domains 1-3) coated plates; compounds as yielded by solid phase synthesis, purity about 40-90%. More on the design: scale not given here. The essentials: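 CFSE-labelled Jurkat E6-1 cells in Tris buffer pH 7.4 with 2 mM MnCl2 were added to wells coated with insect-cell-expressed human VCAM-1 domains 1-3 (0.5 μg/ml coating solution); labelled cells were incubated for 30 min at 37 °C with the VLA-4 inhibitor.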
Broadly, the IC50 is the concentration at which inhibition is half-maximal. In the case of `Cc1ccc(-c2ccc(C[C@H](NC(=O)C3CCCN(C(=O)c4ccc5c(c4)OCO5)C3)C(=O)O)cc2)cc1` (stereo partly shown) [Example 1.20], the IC50 result is given as “C-D”.

As to `Cc1ccc(C(=O)N2CCCC(C(=O)N[C@@H](Cc3ccc(-c4ccccc4)cc3)C(=O)O)C2)cc1` (stereo partly shown) [Example 1.9], the IC50 entry was “C-D”.

For `Cc1ccc(-c2ccc(C[C@H](NC(=O)C3CCCN(C(=O)c4cccc(Cl)c4)C3)C(=O)O)cc2)cc1` (stereo partly shown) [Example 1.18], the IC50 result is “C-D”.

Regarding `COc1ccc(-c2ccc(C[C@H](NC(=O)C3CCCN(S(=O)(=O)c4cc(Cl)cc(Cl)c4)C3)C(=O)O)cc2)cc1` (stereo partly shown) [Example 1.83], the IC50 result is listed as “C-D”.

`Cc1cc(C)c(OC(=O)N2CCCC(C(=O)N[C@@H](Cc3ccc(-c4ccccc4C)cc3)C(=O)O)C2)c(C)c1` (stereo partly shown) [Example 1.38]: the IC50 entry was “C-D”.

Take `O=C(N[C@@H](Cc1ccc(-c2ccc(Cl)cc2Cl)cc1)C(=O)O)C1CCCN(C(=O)Cc2ccccc2)C1` (stereo partly shown) [Example 1.40]: the IC50 entry is reported as “C-D”.

For `COC(=O)c1ccccc1S(=O)(=O)N1CCCC(C(=O)N[C@@H](Cc2ccc(-c3ccc(Cl)cc3Cl)cc2)C(=O)O)C1` (stereo partly shown) [Example 1.95], the IC50 result was “C-D”.

Take `Cc1ccc(-c2ccc(C[C@H](NC(=O)C3CCCN(S(=O)(=O)c4ccc5ccccc5c4)C3)C(=O)O)cc2)cc1` (stereo partly shown) [Example 1.68]: the IC50 result is given as “C-D”.

As to `Cc1ccccc1-c1ccc(C[C@H](NC(=O)C2CCCN(c3ncnc(N4CCNCC4)c3F)C2)C(=O)O)cc1` (stereo partly shown) [Example 2.29], the IC50 result is “C-D”.

`O=C(N[C@@H](Cc1ccc(-c2cc(Cl)ccc2Cl)cc1)C(=O)O)C1CCCN(S(=O)(=O)c2ccccc2C(F)(F)F)C1` (stereo partly shown) [Example 1.109]: the IC50 result is listed as “C-D”.

As to `O=C(N[C@@H](Cc1ccc(-c2ccccc2)cc1)C(=O)O)C1CCCN(S(=O)(=O)c2cc(Cl)cc(Cl)c2)C1` (stereo partly shown) [Example 1.64], the IC50 entry is “C-D”.

With `Cc1ccc(-c2ccc(C[C@H](NC(=O)C3CCCN(C(=O)C4CCCCC4)C3)C(=O)O)cc2)cc1` (stereo partly shown) [Example 1.21], the IC50 entry is reported as “C-D”.

Regarding `Cc1ccc(-c2ccc(C[C@H](NC(=O)C3CCCN(S(=O)(=O)c4ccc(C)cc4)C3)C(=O)O)cc2)cc1` (stereo partly shown) [Example 1.66], the concentration for half-maximal inhibition (IC50) result is “C-D”.

As for `O=C(N[C@@H](Cc1ccc(-c2ccc(Cl)c(Cl)c2)cc1)C(=O)O)C1CCCN(c2ncnc(NC3CCCCC3)c2F)C1` (stereo partly shown) [Example 2.42], the IC50 entry is recorded as “C-D”.

Consider `O=C(N[C@@H](Cc1ccc(-c2ccc(Cl)cc2Cl)cc1)C(=O)O)C1CCCN(S(=O)(=O)Cc2ccccc2)C1` (stereo partly shown) [Example 1.101], for which the IC50 entry is given as “C-D”.

Take `Cc1ccc(-c2ccc(C[C@H](NC(=O)C3CCCN(S(=O)(=O)c4cc(Cl)cc(Cl)c4)C3)C(=O)O)cc2)cc1` (stereo partly shown) [Example 1.74]: the IC50 entry is on record as “C-D”.

Regarding `O=C(N[C@@H](Cc1ccc(-c2ccc(Cl)c(Cl)c2)cc1)C(=O)O)C1CCCN(c2ncnc(N3CCNCC3)c2F)C1` (stereo partly shown) [Example 2.46], the IC50 entry is on record as “C-D”.

As to `COc1ccccc1C(=O)N1CCCC(C(=O)N[C@@H](Cc2ccc(-c3ccccc3)cc2)C(=O)O)C1` (stereo partly shown) [Example 1.14], the IC50 entry is listed as “C-D”.

As for `CCCCN(C)c1ncnc(N2CCCC(C(=O)N[C@@H](Cc3ccc(-c4cc(Cl)ccc4Cl)cc3)C(=O)O)C2)c1F` (stereo partly shown) [Example 2.40], the IC50 result is on record as “A-B”.

The same test, now with this note: adhesion of CFSE-labeled Jurkat cells to recombinant human VCAM-1 (domains 1-3) coated plates; compounds as yielded by solid phase synthesis, purity about 40-90%; read-out: IC50.
`O=C(N[C@@H](Cc1ccc(NC(=O)N2CCN(c3ccccc3)CC2)cc1)C(=O)O)C1CCCN(C(=O)c2ccccc2F)C1` (stereo partly shown) [Example 4.50]: the half-maximal inhibitory concentration (IC50) was no more than 500 nM.

Take `Cc1ccccc1-c1ccc(C[C@H](NC(=O)C2CCCN(C(=O)OC3CCCC3)C2)C(=O)O)cc1` (stereo partly shown) [Example 1.39]: the IC50 fell in the range of 500 to 2000 nM.

As for `O=C(N[C@@H](Cc1ccc(NC(=O)N2CCN(c3ccccc3)CC2)cc1)C(=O)O)C1CCCN(c2ncnc(NCCc3c[nH]cn3)c2F)C1` (stereo partly shown) [Example 5.6], the IC50 was in the range of 2000 to 10000 nM.

In the case of `O=C(N[C@@H](Cc1ccc(-c2cc(Cl)ccc2Cl)cc1)C(=O)O)C1CCCN(C(=O)OC2CCCC2)C1` (stereo partly drawn) [Example 1.5, (2S)-2-[({1-[(cyclopentyloxy)carbonyl]-3-piperidinyl}carbonyl)amino]-3-(2′,5′-dichloro[1,1′-biphenyl]-4-yl)propanoic acid], the IC50 is no more than 500 nM.

Turning to `COc1ccc(S(=O)(=O)N2CCCC(C(=O)N[C@@H](Cc3ccc(NC(=O)NC4CCN(Cc5ccccc5)CC4)cc3)C(=O)O)C2)cc1OC` (stereo partly shown) [Example 4.40], the half-inhibitory concentration (IC50) was 2000 to 10000 nM.

Take `COc1ccc(S(=O)(=O)N2CCCC(C(=O)NC(Cc3ccc(NC(=O)N4CCc5ccccc5C4)cc3)C(=O)O)C2)cc1OC` (stereo not shown) [Example 4.48]: the 50% inhibitory concentration (IC50) is no more than 500 nM.

Take `CN1CCN(C(=O)Nc2ccc(C[C@H](NC(=O)C3CCCN(c4ncnc(N5CCc6ccccc6C5)c4F)C3)C(=O)O)cc2)CC1` (stereo partly shown) [Example 5.27]: the IC50 was in the range of 2000 to 10000 nM.

With `O=C(N[C@@H](Cc1ccc(-c2cc(Cl)ccc2Cl)cc1)C(=O)O)C1CCCN(c2ncnc(N3CCOCC3)c2F)C1` (stereo partly drawn) [Example 2.3, (2S)-3-(2′,5′-dichloro[1,1′-biphenyl]-4-yl)-2-[({1-[5-fluoro-6-(4-morpholinyl)-4-pyrimidinyl]-3-piperidinyl}carbonyl)amino]propanoic acid], the IC50 was no more than 500 nM.

As to `CS(=O)(=O)N1CCCC(C(=O)N[C@@H](Cc2ccc(NC(=O)N3CCN(c4ccccc4)CC3)cc2)C(=O)O)C1` (stereo partly shown) [Example 4.37], the half-inhibitory concentration (IC50) fell in the range of 500 to 2000 nM.

Take `COc1ccccc1C(=O)N1CCCC(C(=O)N[C@@H](Cc2ccc(NC(=O)NCC(c3ccccc3)c3ccccc3)cc2)C(=O)O)C1` (stereo partly shown) [Example 4.15]: the concentration for half-maximal inhibition (IC50) lay within 500 to 2000 nM.

Consider `COc1ccc(S(=O)(=O)N2CCCC(C(=O)N[C@@H](Cc3ccc(-c4ccc(Cl)cc4Cl)cc3)C(=O)O)C2)cc1OC` (stereo partly shown) [Example 1.98], for which the IC50 was in the range of 2000 to 10000 nM.

Regarding `O=C(N[C@@H](Cc1ccc(NC(=O)N2CCc3ccccc3C2)cc1)C(=O)O)C1CCCN(C(=O)Nc2ccccc2)C1` (stereo partly shown) [Example 4.60], the IC50 was 500 to 2000 nM.

Regarding `Cc1ccc(S(=O)(=O)N2CCCC(C(=O)N[C@@H](Cc3ccc(NC(=O)N4CCOCC4)cc3)C(=O)O)C2)cc1` (stereo partly shown) [Example 4.43], the half-inhibitory concentration (IC50) is no more than 500 nM.

Take `COc1ccc(S(=O)(=O)N2CCCC(C(=O)N[C@@H](Cc3ccc(-c4ccccc4C)cc3)C(=O)O)C2)cc1OC` (stereo partly shown) [Example 1.88]: the half-maximal inhibitory concentration (IC50) lay within 2000 to 10000 nM.

Consider `CN1CCN(C(=O)Nc2ccc(C[C@H](NC(=O)C3CCCN(c4ncnc(N)c4F)C3)C(=O)O)cc2)CC1` (stereo partly shown) [Example 5.34], for which the IC50 is no more than 500 nM.

For the compound `COc1ccccc1NC(=O)N1CCCC(C(=O)N[C@H](Cc2ccc(NC(=O)N3CCN(c4ccccc4)CC3)cc2)C(=O)O)C1` (stereo partly shown) [Example 4.55], the IC50 fell in the range of 500 to 2000 nM.

Regarding `O=C(N[C@@H](Cc1ccc(NC(=O)N2CCOCC2)cc1)C(=O)O)C1CCCN(c2ncnc(NCc3ccccn3)c2F)C1` (stereo partly shown) [Example 5.47], the IC50 lay within 500 to 2000 nM.

Regarding `COc1ccc(OC(=O)N2CCCC(C(=O)N[C@@H](Cc3ccc(NC(=O)N4CCN(c5ccccc5)CC4)cc3)C(=O)O)C2)cc1` (stereo partly shown) [Example 4.19], the concentration for half-maximal inhibition (IC50) was in the range of 2000 to 10000 nM.

Regarding `COc1ccc(Cl)cc1S(=O)(=O)N1CCCC(C(=O)N[C@@H](Cc2ccc(NC(=O)N3CCN(c4ccccc4)CC3)cc2)C(=O)O)C1` (stereo partly shown) [Example 4.38], the IC50 fell in the range of 500 to 2000 nM.

Consider `O=C(N[C@@H](Cc1ccc(NC(=O)N2CCOCC2)cc1)C(=O)O)C1CCCN(C(=O)OCc2ccccc2)C1` (stereo partly shown) [Example 4.17], for which the IC50 lay within 500 to 2000 nM.

Regarding `Cc1ccc(S(=O)(=O)N2CCCC(C(=O)N[C@@H](Cc3ccc(-c4ccccc4)cc3)C(=O)O)C2)cc1` (stereo partly shown) [Example 1.56], the IC50 was 500 to 2000 nM.
